{
  "source": "patent US10034836B2",
  "about": "“Formulations of guanylate cyclase C agonists and methods of use” (SYNERGY PHARMACEUTICALS, INC., priority 2008, dated 2018)",
  "key": {"mice treated with TNBS": {"tested_on": "mice treated with TNBS", "assay": "Stool consistency in TNBS-induced murine model of colitis", "format": "in vivo", "details": "oral administration (FIG. 13)", "from_the_text": "The anal administration of trinitrobenzene sulphonic acid (TNBS) is typically used to produce intestinal blockage, resulting in poor stool consistency."}, "BDF1 mice": {"tested_on": "BDF1 mice", "assay": "DSS-induced colitis in BDF-1 mice", "format": "in vivo", "details": "5% DSS, 80 mg/kg oral gavage daily (positive control)", "experimental": "The cGMP pathway mediates the anti-inflammatory effects of cellular molecules such as nitric oxide and heme oxygenase-1. […] The anti-inflammatory effects of the GCC agonist SP-304 were evaluated in a murine model of ulcerative colitis, the DSS-induced colitis model.\nForty eight BDF1 mice were divided into 8 treatment groups (6 mice/group). One group was not exposed to DSS (untreated control) and groups […] were treated with 5% DSS in the drinking water. DSS was refreshed daily. All mice were weighed on day −1, and treated with the test materials beginning on day −1. 4 hrs post dosing on Day 0, DSS was placed in the drinking water of groups 2-8 and DSS remained in the water until the end of the study. The test agents were administered at 9 AM daily until day 7. Animals were treated with a single dose of test agents and the groups were as follows:\nAll doses were administered by oral gavage using a 0.1 ml dose per 10 g body weight. To avoid cage-to-cage variation, different treatment groups were housed in the same cage and animals were ear punched for identification purposes. Mice were sacrificed on day 7, 4-6 hrs post last dosing. […] All slides were scored in a blinded manner.\nFive different sections of the tissue were examined for histopathological scoring and the scores were averaged for each mouse. The histopathology scores in FIG. 17 are expressed as an average of 6 mice."}},
  "data": [
    {"smiles": "O=C(O)c1cc(/N=N/c2ccc(S(=O)(=O)Nc3ccccn3)cc2)ccc1O", "note": "[Sulfasalazine]", "values": [
      {"measurement": "stool consistency in mice treated with TNBS", "setting": "mice treated with TNBS", "result": "restored normal stool consistency"},
      {"measurement": "severity of inflammation in large intestine (histopathology score)", "setting": "BDF1 mice", "result": "considerably reduced"}
    ]}
  ]
}
